Patent US10183047B2, “Chromium-containing compositions in combination with Phyllanthus emblica and shilajit having synergistic effects for improving endothelial function and cardiovascular health” (Natreon, Inc., priority 2014, dated 2019)

What was measured:
Format in all cases: in vivo, human
[1] = system: high sensitivity C-reactive protein (hsCRP); assay: hsCRP by ELISA, type 2 diabetics; conditions: for hsCRP: DM, 400 mcg; for Mean percentage change in hsCRP / hsCRP Post Tt / hsCRP Pre Tt: type 2 diabetics (Example 3), chromium products 400 mcg; for Mean percentage change in hsCRP: 12 week treatment; for hsCRP Post Tt: post-treatment, 12 weeks; for hsCRP Pre Tt: pre-treatment
Experimental: (§1) The present clinical study is a prospective, randomized, double blind, placebo-controlled study. Patients of either sex, aged 30-65 years, fasting plasma glucose of 110-126 mg/dl, a glycosylated hemoglobin (HbA1c) between 6.5% and 8% and taking stable dose of anti-diabetic treatment (metformin 1500-2000 mg/day) for the past 8 weeks prior to the screening visit; and having endothelial dysfunction defined as ≤6% change in reflection index (RI) on post salbutamol challenge test were included in the study. Patients with severe uncontrolled hyperglyceamia, uncontrolled hypertension, cardiac arrhythmia, impaired hepatic or renal function, history of malignancy or stroke, smoking, chronic alcoholism, any other serious disease requiring active treatment and treatment with any other herbal supplements, were excluded from the study.
(§2) After screening, all the eligible subjects were randomized to receive either one of the three treatments orally for duration of 12 weeks—Group1—one capsule of Crominex®3+, 200 mcg once daily, Group 2—one capsule Crominex®3+, 400 mcg once daily; Group 3—one capsule of placebo once daily.
(§3) Subjects were required for follow up at 4, 8 and 12 weeks of therapy. At each visit they were evaluated for efficacy and safety. Pharmacodynamic evaluation for endothelial function was conducted at every visit. Blood samples were collected for evaluation of biomarkers before and at the end of treatment. Safety lab investigations for hematological, hepatic and renal biochemical parameters were conducted before and at the end of the study and also as and when required (in case of any adverse drug reaction (ADR). Subjects were enquired for the presence of ADR and the same was recorded in the case report form. Compliance to therapy was assessed by pill count method.
(§4) Nitric oxide, MDA, Glutathione and levels were estimated spectrophotometrically as follows. Malondialdehyde (MDA) levels were determined as described in Vidyasagar, et al., “Oxidative stress and antioxidant status in acute organophosphorous insecticide poisoning,” Indian J. Pharmacol. (April 2004) 36(2): 76-79. Glutathione levels were determined as described in G. L. Ellman, Arch. Biochem. Biophys. (1959) 82: 70-77 (original determination). Nitric oxide levels were estimated spectrophotometrically as described in Miranda, et al., “A Rapid, Simple Spectrophotometric Method for Simultaneous Detection of Nitrate and Nitrite,” NITRIC OXIDE: Biology and Chemistry (2001) Vol. 5, No. 1, pp. 62-71. hsCRP (high sensitivity C-reactive protein) was determined by ELISA method.
(§5) When the results with Crominex® 3+ in the above two examples were highly significant, especially with the 400 mcg once daily dose in type 2 diabetics, two more clinical studies (EXAMPLES 3 & 4) were conducted at the same institute, following the same methodology as described earlier, on the individual components of Crominex® 3+, i.e., chromium chloride and Phyllanthus emblica+Shilajit, and other chromium supplements available in the market, i.e., chromium picolinate, chromium polynicotinate and chromium dinicocysteinate, in type 2 diabetics as well as in subjects with metabolic syndrome symptoms.

fasting plasma glucose = assay: Fasting plasma glucose, metabolic syndrome subjects; conditions: for Fasting Glucose: MS, 400 mcg; for Fasting Plasma Glucose Post Tt / Fasting Plasma Glucose Pre Tt: metabolic syndrome subjects (Example 4), chromium products 400 mcg; for Fasting Plasma Glucose Post Tt: after 12 weeks of treatment; for Fasting Plasma Glucose Pre Tt: pre-treatment
Excerpt: (§6) Patients included in the study, were of either gender, aged 30-68 years, having endothelial dysfunction defined as ≤6% change in reflection index (RI) on post salbutamol challenge test and central obesity as defined by The International Diabetes Federation guidelines, dated 2006, and any two of the following conditions:
(§7) After screening, all the eligible subjects were randomized to receive either one of the three treatments orally for duration of 12 weeks: group 1—one capsule of Crominex®3+ 200 mcg once daily; group 2—one capsule 400 mcg once daily; group 3—one capsule of Placebo once daily.
(§8) Subjects were reviewed for follow up at 4 weeks, 8 and 12 weeks of therapy. At each visit they were evaluated for efficacy and safety. Pharmacodynamic evaluation for endothelial function was conducted at baseline and end of treatment. Blood samples were collected for evaluation of biomarkers before and at end of treatment. Safety lab investigations for hematological, hepatic and renal biochemical parameters were conducted before and at the end of the study and also as and when required (in case of any adverse drug reaction (ADR)). Subjects were enquired for the presence of ADR and the same was recorded in the case report form. Compliance to therapy was assessed by pill count method.
as §5

malondialdehyde (MDA) = assay: Malondialdehyde level, metabolic syndrome subjects; conditions: for MDA: MS, 400 mcg; for MDA Post Tt / Mean percentage change in MDA / MDA Pre Tt: metabolic syndrome subjects (Example 4), chromium products 400 mcg; for MDA Post Tt: after 12 weeks of treatment; for Mean percentage change in MDA: after 12 weeks treatment; for MDA Pre Tt: pre-treatment
Experimental: as §4, §6, §7, §8
Assessment of endothelial function, biomarkers, safety parameters and primary and secondary efficacy parameters and data analysis were performed as described under the study with type 2 diabetic subjects in Example 1.
as §5

[2] = system: Glycosylated Hemoglobin A1c (HbA1c); assay: Glycosylated hemoglobin A1c, type 2 diabetics; conditions: for HbA1c (Abs.): DM, 400 mcg, absolute change; for Absolute change in HbA1c / HbA1c Post Tt / HbA1c Pre Tt: type 2 diabetics (Example 3), chromium products 400 mcg; for Absolute change in HbA1c: after 12 weeks treatment; for HbA1c Post Tt: post-treatment, 12 weeks; for HbA1c Pre Tt: pre-treatment
Experimental: as §1, §2, §3
All the subjects had undergone complete physical examination, safety lab evaluations at baseline and at the end of the treatment. Samples were collected after an overnight fast of 12 hrs after the last dose of medication for determination of hemoglobin, glycosylated hemoglobin (HbA1c), blood urea, serum creatinine, liver function, lipid profile (Total cholesterol, High density lipoprotein cholesterol (HDL-C), low density lipoprotein cholesterol (LDL-C) using appropriate standard techniques.
as §5

Molecule: O.O.O.O.O.O.[Cl][Cr]([Cl])[Cl] [Chromium chloride, Chromium chloride (CrCl3.6H2O)]
- hsCRP [1]: −9.92%
- Mean percentage change in hsCRP [1]: −9.92 ± 3.86 #$NS %
- hsCRP Post Tt [1]: 2.46 ± 0.55 mg/L
- hsCRP Pre Tt [1]: 2.72 ± 0.53 mg/L
- Fasting Glucose (fasting plasma glucose): −2.7%
- Fasting Plasma Glucose Post Tt (fasting plasma glucose): 101.32 ± 16.51 NS
- Fasting Plasma Glucose Pre Tt (fasting plasma glucose): 104.16 ± 14.92
- MDA (malondialdehyde (MDA)): −4.65%
- MDA Post Tt (malondialdehyde (MDA)): 3.76 ± 0.42 nM/ml
- Mean percentage change in MDA (malondialdehyde (MDA)): −4.65 ± 1.95%
- MDA Pre Tt (malondialdehyde (MDA)): 3.94 ± 0.42 nM/ml
- HbA1c (Abs.) [2]: −0.02
- Absolute change in HbA1c [2]: −0.02 ± 0.10 #NS %
- HbA1c Post Tt [2]: 6.89 ± 0.16 NS %
- HbA1c Pre Tt [2]: 6.91 ± 0.16%

Molecule: chromium dinicocysteinate
- hsCRP [1]: −8.61%
- Mean percentage change in hsCRP [1]: −8.61 ± 12.40 #@NS %
- hsCRP Post Tt [1]: 2.56 ± 0.58 @ mg/L
- hsCRP Pre Tt [1]: 2.79 ± 0.53 mg/L
- Fasting Glucose (fasting plasma glucose): −2.18%
- Fasting Plasma Glucose Post Tt (fasting plasma glucose): 99.50 ± 17.60 NS
- Fasting Plasma Glucose Pre Tt (fasting plasma glucose): 101.72 ± 21.41
- MDA (malondialdehyde (MDA)): −6.7%
- MDA Post Tt (malondialdehyde (MDA)): 3.74 ± 0.42 nM/ml
- Mean percentage change in MDA (malondialdehyde (MDA)): −6.67 ± 1.47%
- MDA Pre Tt (malondialdehyde (MDA)): 4.00 ± 0.42 nM/ml
- HbA1c (Abs.) [2]: −0.01
- Absolute change in HbA1c [2]: −0.01 ± 0.07 #NS %
- HbA1c Post Tt [2]: 7.10 ± 0.08 NS %
- HbA1c Pre Tt [2]: 7.11 ± 0.08%

Molecule: chromium picolinate
- hsCRP [1]: −18.9%
- Mean percentage change in hsCRP [1]: −18.90 ± 7.04@$NS %
- hsCRP Post Tt [1]: 2.22 ± 0.64 mg/L
- hsCRP Pre Tt [1]: 2.70 ± 0.63 mg/L
- Fasting Glucose (fasting plasma glucose): −4.27%
- Fasting Plasma Glucose Post Tt (fasting plasma glucose): 96.63 ± 13.11 @
- Fasting Plasma Glucose Pre Tt (fasting plasma glucose): 100.95 ± 14.05 ^
- MDA (malondialdehyde (MDA)): −7.1%
- MDA Post Tt (malondialdehyde (MDA)): 3.60 ± 0.46 nM/ml
- Mean percentage change in MDA (malondialdehyde (MDA)): −7.14 ± 1.70%
- MDA Pre Tt (malondialdehyde (MDA)): 3.87 ± 0.47 nM/ml
- HbA1c (Abs.) [2]: −0.02
- Absolute change in HbA1c [2]: −0.02 ± 0.08 #NS %
- HbA1c Post Tt [2]: 7.03 ± 0.15 NS %
- HbA1c Pre Tt [2]: 7.05 ± 0.11%

Molecule: chromium polynicotinate
- hsCRP [1]: −11.45%
- Mean percentage change in hsCRP [1]: −11.45 ± 12.28 #NS %
- hsCRP Post Tt [1]: 2.43 ± 0.49 mg/L
- hsCRP Pre Tt [1]: 2.75 ± 0.47 mg/L
- Fasting Glucose (fasting plasma glucose): −4.14%
- Fasting Plasma Glucose Post Tt (fasting plasma glucose): 95.95 ± 13.32 NS
- Fasting Plasma Glucose Pre Tt (fasting plasma glucose): 100.10 ± 14.00
- MDA (malondialdehyde (MDA)): −5.4%
- MDA Post Tt (malondialdehyde (MDA)): 3.83 ± 0.41 nM/ml
- Mean percentage change in MDA (malondialdehyde (MDA)): −5.38 ± 1.31%
- MDA Pre Tt (malondialdehyde (MDA)): 4.04 ± 0.40 nM/ml
- HbA1c (Abs.) [2]: −0.01
- Absolute change in HbA1c [2]: 0.01 ± 0.10 #NS %
- HbA1c Post Tt [2]: 7.09 ± 0.13 NS %
- HbA1c Pre Tt [2]: 7.08 ± 0.08%
